≈ marks a conversion by molar mass, not a printed value.

These results are taken from DBAASP.

Test systems include Candida albicans; Escherichia coli MG1655; Escherichia coli UB1005; Pseudomonas aeruginosa; Staphylococcus aureus; Acinetobacter baumannii; Escherichia coli.
Holding throughout (test): ≥ marks a high value that may be exact or a test limit, other limits are often not marked, values filed in µg/mL are converted to µM
In assay [1] the test system is Candida albicans ATCC 90028.
In assay [2] the test system is Escherichia coli ATCC 25922.
The test system of assay [3] is Staphylococcus aureus NCTC 8325.
Assay [4] has as its system Pseudomonas aeruginosa PAO1.
The test system of assay [5] is Staphylococcus aureus ATCC 25923.
The subject of assay [6] is Staphylococcus aureus ATCC 29213.
For assay [7], the system named is Escherichia coli ATCC 35218.
The subject of assay [8] is Pseudomonas aeruginosa ATCC 27853.
Assay [9] has as its system Salmonella enterica serovar Typhimurium.

As to `CC[C@H](C)[C@H](NC(=O)[C@H](CC(C)C)NC(=O)[C@H](CC(N)=O)NC(=O)[C@@H](NC(=O)[C@H](CC(C)C)NC(=O)[C@@H](NC(=O)[C@@H]1CCCN1C(=O)[C@H](CC(C)C)NC(=O)[C@@H](N)Cc1ccccc1)[C@@H](C)CC)[C@@H](C)CC)C(=O)N[C@@H](Cc1cnc[nH]1)C(=O)N[C@@H](CCCCN)C(=O)NCC(=O)N[C@@H](CC(C)C)C(=O)N[C@@H](CC(C)C)C(N)=O` [FLPILINLIHKGLL], the MIC (commonly the lowest concentration found to suppress growth) in assay [1] is no less than 150 µM; in assay [2], greater than 150 µM; in assay [3], no less than 125 µM.

As for `CC[C@H](C)[C@H](NC(=O)[C@H](C)NC(=O)[C@H](CO)NC(=O)[C@H](CC(C)C)NC(=O)[C@@H](N)Cc1ccccc1)C(=O)N[C@H](C(=O)N[C@@H](CO)C(=O)N[C@@H](CC(C)C)C(=O)N[C@@H](CC(C)C)C(=O)NCC(=O)N[C@@H](CCCCN)C(=O)N[C@@H](CC(C)C)C(=O)N[C@@H](CC(C)C)C(N)=O)[C@@H](C)O` [FLSAITSLLGKLL], the MIC in assay [3] is 6 µM (≈ 8.25 µg/mL).

For the compound `CSCC[C@H](NC(=O)[C@@H](NC(=O)[C@H](CCCCN)NC(=O)[C@H](Cc1cnc[nH]1)NC(=O)[C@H](CC(C)C)NC(=O)CN)C(C)C)C(=O)N[C@@H](CCCN=C(N)N)C(=O)N[C@@H](CCC(=O)O)C(=O)N[C@H](C(=O)N[C@@H](CC(C)C)C(=O)NCC(=O)N[C@@H](Cc1ccc(O)cc1)C(=O)N[C@@H](CCC(=O)O)C(=O)N[C@@H](CCCN=C(N)N)C(=O)N[C@@H](CC(N)=O)C(=O)N[C@@H](CO)C(=O)N[C@@H](Cc1ccc(O)cc1)C(=O)N[C@@H](CCCCN)C(N)=O)C(C)C` [GLHKVMREVLGYERNSYK], the MIC in the assay on Candida albicans is greater than 128 µM; in the assay on Escherichia coli MG1655, no less than 128 µM; in assay [4], greater than 128 µM; in assay [5], greater than 128 µM.

`CC[C@H](C)[C@H](NC(=O)[C@@H](NC(=O)[C@@H]1CCCN1C(=O)[C@@H](NC(=O)[C@@H](NC(=O)[C@H](Cc1cnc[nH]1)NC(=O)[C@@H]1CCCN1C(=O)[C@H](CC(C)C)NC(=O)[C@@H](NC(=O)[C@H](Cc1cnc[nH]1)NC(=O)[C@H](CCCCN)NC(=O)[C@H](C)NC(=O)[C@@H](NC(=O)[C@H](CO)NC(=O)CNC(=O)[C@H](CC(C)C)NC(=O)[C@@H](NC(=O)[C@H](CO)NC(=O)[C@H](CC(C)C)NC(=O)[C@H](CC(C)C)NC(=O)CN)C(C)C)C(C)C)C(C)C)C(C)C)C(C)C)C(C)C)C(=O)N[C@@H](C)C(=O)N[C@@H](CCC(=O)O)C(=O)N[C@@H](Cc1cnc[nH]1)C(=O)N[C@@H](CC(C)C)C(N)=O` [GLLSVLGSVAKHVLPHVVPVIAEHL]: the minimal inhibitory concentration (MIC) against Escherichia coli MG1655 is no less than 120 µM; in assay [6] it was 8 µM (≈ 20.7 µg/mL).

As for `CC[C@H](C)[C@H](NC(C)=O)C(=O)N[C@@H](CC(=O)O)C(=O)NCC(=O)N[C@@H](CC(C)C)C(=O)N[C@@H](CCCCN)C(=O)N[C@@H](C)C(=O)N[C@H](C(=O)N[C@@H](Cc1c[nH]c2ccccc12)C(=O)N[C@@H](CCCCN)C(=O)N[C@@H](CCCCN)C(=O)N[C@H](C(=O)N[C@@H](C)C(=O)N[C@@H](CC(=O)O)C(=O)N[C@@H](CC(C)C)C(=O)N[C@@H](CC(C)C)C(=O)N[C@@H](CCCCN)C(=O)N[C@@H](CC(N)=O)C(=O)N[C@H](C(N)=O)[C@@H](C)O)C(C)C)[C@@H](C)CC` [IDGLKAIWKKVADLLKNT], the MIC in assay [7] was 9 µM (≈ 18.6 µg/mL); in assay [8], 72.5 µM (≈ 150 µg/mL); in assay [5], greater than 72.5 µM.

Regarding `CC[C@H](C)[C@H](N)C(=O)N[C@@H](CC(C)C)C(=O)N1CCC[C@H]1C(=O)N[C@@H](CC(C)C)C(=O)N[C@@H](CC(C)C)C(=O)N[C@@H](CC(C)C)C(=O)NCC(=O)N[C@@H](CCCCN)C(=O)N[C@H](C(=O)N[C@H](C(=O)N[C@H]1CSSC[C@@H](C(=O)O)NC(=O)[C@H](CCCCN)NC(=O)[C@H](CCCCN)NC(=O)[C@H]([C@@H](C)O)NC(=O)[C@H]([C@@H](C)CC)NC(=O)[C@H](C)NC1=O)C(C)C)C(C)C` [ILPLLLGKVVCAITKKC], the MIC in [2] worked out at 30 µM (≈ 54.3 µg/mL); in assay [3], 7 µM (≈ 12.7 µg/mL).

For the compound `CC[C@H](C)[C@H](N)C(=O)N[C@@H](CC(C)C)C(=O)N1CCC[C@H]1C(=O)N[C@@H](CC(C)C)C(=O)N[C@H](C(=O)NCC(=O)N[C@@H](CC(N)=O)C(=O)N[C@@H](CC(C)C)C(=O)N[C@@H](CC(C)C)C(=O)N[C@@H](CC(N)=O)C(=O)N[C@@H](CC(=O)O)C(=O)N[C@@H](CC(C)C)C(=O)N[C@@H](CC(C)C)C(N)=O)C(C)C` [ILPLVGNLLNDLL], the minimal inhibitory concentration (MIC) in assay [2] is greater than 100 µM; in [3] it was no less than 100 µM.

In the case of `CC[C@H](C)[C@H](NC(=O)[C@H](Cc1ccccc1)NC(=O)[C@H](CCCCN)NC(=O)[C@H](CCCCN)NC(=O)[C@H](Cc1c[nH]c2ccccc12)NC(=O)[C@@H](N)CCCCN)C(=O)N[C@@H](CCCCN)C(=O)N[C@@H](CO)C(=O)N[C@@H](CC(C)C)C(=O)N[C@H](C(=O)N[C@@H](CCCCN)C(=O)N[C@@H](CO)C(=O)N[C@@H](C)C(=O)N[C@@H](C)C(=O)N[C@@H](CCCCN)C(=O)N[C@H](C(=O)N[C@H](C(=O)N[C@H](C(=O)N[C@@H](CCCCN)C(=O)N[C@H](C(=O)N[C@@H](C)C(=O)N[C@@H](CCCCN)C(=O)N[C@@H](CCCCN)C(=O)N1CCC[C@H]1C(=O)N[C@@H](CC(C)C)C(=O)N[C@H](C(=O)N[C@H](C(N)=O)C(C)C)[C@@H](C)CC)[C@@H](C)O)C(C)C)C(C)C)[C@@H](C)O)[C@@H](C)O` [KWKKFIKSLTKSAAKTVVKTAKKPLIV], the MIC is 0.329 µM (≈ 1 µg/mL) with Escherichia coli UB1005; 1.31 µM (≈ 4 µg/mL) in assay [4]; 0.93 µM (≈ 2.83 µg/mL) with Pseudomonas aeruginosa; 0.986 µM (≈ 3 µg/mL) in [9]; greater than 21 µM against Staphylococcus aureus.

As for `CC[C@H](C)[C@H](NC(=O)[C@H](CO)NC(=O)CNC(=O)[C@@H](NC(=O)[C@@H](N)C(C)C)[C@@H](C)CC)C(=O)N[C@@H](CC(C)C)C(=O)NCC(=O)N[C@@H](C)C(=O)N[C@@H](CC(C)C)C(=O)N[C@@H](C)C(=O)N[C@@H](CO)C(=O)NCC(=O)N[C@@H](CC(C)C)C(=O)N1CCC[C@H]1C(=O)N[C@H](C(=O)N[C@@H](CC(C)C)C(=O)N[C@H](C(=O)N[C@@H](CO)C(=O)N[C@@H](Cc1c[nH]c2ccccc12)C(=O)N[C@H](C(=O)N[C@@H](CCCCN)C(=O)N[C@@H](CC(N)=O)C(=O)N[C@@H](CCCN=C(N)N)C(N)=O)[C@@H](C)CC)[C@@H](C)CC)[C@@H](C)O` [VIGSILGALASGLPTLISWIKNR], the MIC in [1] is 25 µM (≈ 59.5 µg/mL); in [2], 25 µM (≈ 59.5 µg/mL); in assay [3] it was 6 µM (≈ 14.3 µg/mL).

Turning to `CC[C@H](C)[C@H](NC(=O)[C@H](CCCN=C(N)N)NC(=O)[C@@H](NC(=O)[C@H](CCCN=C(N)N)NC(=O)[C@H](Cc1c[nH]c2ccccc12)NC(=O)[C@H](CCC(N)=O)NC(=O)[C@@H](N)C(C)C)[C@@H](C)CC)C(=O)N[C@@H](C)C(=O)N[C@H](C(=O)N[C@H](C(=O)N[C@@H](CCCN=C(N)N)C(=O)N[C@@H](C)C(=O)O)[C@@H](C)CC)C(C)C` [VQWRIRIAVIRA], the MIC against Acinetobacter baumannii worked out at 21.6 µM (≈ 32 µg/mL); in [2], 5.4 µM (≈ 8 µg/mL); against Escherichia coli it was 43.2 µM (≈ 64 µg/mL); in assay [4], 21.6 µM (≈ 32 µg/mL); against Pseudomonas aeruginosa, 30.6 µM (≈ 45.3 µg/mL); in assay [9] it was 2.7 µM (≈ 4 µg/mL). In addition, the MIC in [5] was 5.4 µM (≈ 8 µg/mL); against Staphylococcus aureus it was 15.3 µM (≈ 22.6 µg/mL).

Take `CC[C@H](C)[C@H](NC(=O)[C@H](CCCN=C(N)N)NC(=O)[C@H](Cc1c[nH]c2ccccc12)NC(=O)[C@H](CCC(N)=O)NC(=O)[C@@H](N)C(C)C)C(=O)N[C@@H](CCCN=C(N)N)C(=O)N[C@H](C(=O)N[C@@H](CS)C(=O)N[C@H](C(=O)N[C@H](C(=O)N[C@@H](CCCN=C(N)N)C(=O)N[C@@H](C)C(=O)O)[C@@H](C)CC)C(C)C)C(C)C` [VQWRIRVCVIRA]: the MIC in assay [2], in [4], in assay [9] and in assay [5] was 21.3 µM (≈ 32 µg/mL) in each case.
